Data on two compounds can be found in patent US11051515B2, “3-acyl-benzamides and their use as herbicides” (Bayer Aktiengesellschaft, priority 2017, dated 2021).

Assay [1] deals with ALOMY. The experiment in a line: Pre-emergence action against ALOMY. The conditions noted are these: dosage 320 g/ha; pre-emergence; scored visually after 3 weeks vs untreated controls; 100% = plants have died, 0% = like control plants. It is filed as in vivo, Alopecurus myosuroides. Put shortly:
(§1)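 Seeds sown in sandy loam in wood-fiber pots and covered with soil. Greenhouse growth; visual damage scored after 3 weeks versus untreated controls (100% = dead, 0% = like control).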

Assay [2] deals with AVEFA. Put plainly: Pre-emergence action against AVEFA. It is filed as in vivo, Avena fatua. The conditions noted are these: dosage 320 g/ha, scored visually after 3 weeks vs untreated controls. Put shortly: as §1
In assay [3] the test system is CYPES. The experiment in a line: Pre-emergence action against CYPES. It is filed as in vivo, Cyperus esculentus. The following applies: pre-emergence, dosage 320 g/ha, scored visually after 3 weeks vs untreated controls. Put shortly:
as §1

The test system of assay [4] is ECHCG. The experiment in a line: Pre-emergence action against ECHCG. It is filed as in vivo, Echinochloa crus-galli. The conditions noted are these: pre-emergence, dosage 320 g/ha, scored visually after 3 weeks vs untreated controls. Put shortly: as §1
In assay [5] the test system is SETVI. The experiment in a line: Pre-emergence action against SETVI. Format: in vivo, Setaria viridis. The conditions noted are these: pre-emergence, dosage 320 g/ha, scored visually after 3 weeks vs untreated controls. The method in brief:
as §1

Assay [6] concerns ABUTH. Put plainly: Pre-emergence action against ABUTH. Format: in vivo, Abutilon theophrasti. The conditions noted are these: pre-emergence, dosage 320 g/ha, scored visually after 3 weeks vs untreated controls. Put shortly:
as §1

Assay [7] concerns AMARE. The experiment in a line: Pre-emergence action against AMARE. Format: in vivo, Amaranthus retroflexus. The following applies: pre-emergence, dosage 320 g/ha, scored visually after 3 weeks vs untreated controls. The method in brief:
as §1

In assay [8] the test system is MATIN. Put plainly: Pre-emergence action against MATIN. It is filed as in vivo, Matricaria inodora. The following applies: Dosage 320 g/ha, pre-emergence. Put shortly: as §1
The test system of assay [9] is PHBPU. Put plainly: Pre-emergence action against PHBPU. It is filed as in vivo, Pharbitis purpurea. The following applies: Dosage 320 g/ha, pre-emergence. Put shortly:
as §1

Assay [10] concerns POLCO. The experiment in a line: Pre-emergence action against POLCO. It is filed as in vivo, Polygonum convolvulus. The following applies: Dosage 320 g/ha, pre-emergence. The method in brief: as §1
For assay [11], the system named is STEME. The experiment in a line: Pre-emergence action against STEME. It is filed as in vivo, Stellaria media. The conditions noted are these: Dosage 320 g/ha, pre-emergence. The method in brief:
as §1

Assay [12] deals with VIOTR. Put plainly: Pre-emergence action against VIOTR. Format: in vivo, Viola tricolor. The conditions noted are these: Dosage 320 g/ha, pre-emergence. Put shortly: as §1
The test system of assay [13] is VERPE. Put plainly: Pre-emergence action against VERPE. Format: in vivo, Veronica persica. The conditions noted are these: Dosage 320 g/ha, pre-emergence. Put shortly:
as §1

Assay [14] concerns ALOMY. The experiment in a line: Post-emergence action against ALOMY. It is filed as in vivo, Alopecurus myosuroides. The conditions noted are these: Dosage 80 g/ha, post-emergence. Here is the method:
Seeds of monocotyledonous and dicotyledonous weed and crop plants are laid out in sandy loam soil in wood-fiber pots, covered with soil and cultivated in a greenhouse under good growth conditions. 2 to 3 weeks after sowing, the test plants are treated at the one-leaf stage. The compounds of the invention, formulated in the form of wettable powders (WP) or as emulsion concentrates (EC), are then sprayed onto the green parts of the plants in the form of an aqueous suspension or emulsion at a water application rate equating to […], with addition of 0.2% wetting agent. After the test plants have been left to stand in the greenhouse under optimal growth conditions for about 3 weeks, the action of the preparations is assessed visually in comparison to untreated controls (herbicidal action in percent (%): 100% activity=the plants have died, 0% activity=like control plants). […] At the same time, inventive compounds leave Gramineae crops such as barley, wheat, rye, millet/Sorghum, corn or rice virtually undamaged when applied post-emergence, even at high active ingredient dosages. In addition, some substances are also harmless to dicotyledonous crops such as soya, cotton, oilseed rape, sugar beet or potatoes. Some of the compounds according to the invention have high selectivity and are therefore suitable for controlling unwanted vegetation in agricultural crops by the post-emergence method. The data of Tables B18 to B34 below illustrate, in an exemplary manner, the […] herbicidal action of the compounds according to the invention, the herbicidal activity being stated in percent.

For assay [15], the system named is AVEFA. The experiment in a line: Post-emergence action against AVEFA. It is filed as in vivo, Avena fatua. The conditions noted are these: post-emergence, dosage 80 g/ha, visual assessment about 3 weeks after treatment vs untreated controls. The method in brief:
(§2)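 Weeds grown in sandy loam in greenhouse, treated at one-leaf stage (2–3 weeks after sowing) with WP or EC formulations sprayed as aqueous suspension/emulsion at 600 to […] water with 0.2% wetting agent. Visual rating after about 3 weeks versus untreated controls, as % herbicidal action (100% = plants dead, 0% = like control).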

Assay [16] deals with CYPES. The experiment in a line: Post-emergence action against CYPES. It is filed as in vivo, Cyperus esculentus. The following applies: post-emergence, dosage 80 g/ha, visual assessment about 3 weeks after treatment vs untreated controls. The method in brief:
as §2

The test system of assay [17] is ECHCG. Put plainly: Post-emergence action against ECHCG. Format: in vivo, Echinochloa crus-galli. The conditions noted are these: post-emergence, dosage 80 g/ha, visual assessment about 3 weeks after treatment vs untreated controls. The method in brief: as §2
Assay [18] relates to SETVI. The experiment in a line: Post-emergence action against SETVI. Format: in vivo, Setaria viridis. The conditions noted are these: post-emergence, dosage 80 g/ha, visual assessment about 3 weeks after treatment vs untreated controls. The method in brief:
as §2

The subject of assay [19] is ABUTH. Put plainly: Post-emergence action against ABUTH. It is filed as in vivo, Abutilon theophrasti. The conditions noted are these: post-emergence, dosage 80 g/ha, visual assessment about 3 weeks after treatment vs untreated controls. The method in brief: as §2
For assay [20], the system named is AMARE. Put plainly: Post-emergence action against AMARE. The following applies: post-emergence, dosage 80 g/ha, visual assessment about 3 weeks after treatment vs untreated controls. It is filed as in vivo, Amaranthus retroflexus. The method in brief: as §2
Assay [21] deals with MATIN. Put plainly: Post-emergence action against MATIN. It is filed as in vivo, Matricaria inodora. The conditions noted are these: post-emergence, dosage 80 g/ha, visual assessment about 3 weeks after treatment vs untreated controls. The method in brief:
as §2

The subject of assay [22] is PHBPU. Put plainly: Post-emergence action against PHBPU. The following applies: post-emergence, dosage 80 g/ha. It is filed as in vivo, Pharbitis purpurea. The method in brief: as §2
Assay [23] has as its system STEME. The experiment in a line: Post-emergence action against STEME. Format: in vivo, Stellaria media. The conditions noted are these: post-emergence, dosage 80 g/ha. The method in brief:
as §2

For assay [24], the system named is VIOTR. Put plainly: Post-emergence action against VIOTR. It is filed as in vivo, Viola tricolor. The following applies: post-emergence, dosage 80 g/ha. The method in brief:
as §2

Assay [25] deals with VERPE. The experiment in a line: Post-emergence action against VERPE. It is filed as in vivo, Veronica persica. The following applies: dosage 80 g/ha. The method in brief: as §2
The subject of assay [26] is POLCO. The experiment in a line: Post-emergence action against POLCO. Format: in vivo, Polygonum convolvulus. The following applies: post-emergence, dosage 80 g/ha. The method in brief: as §2

For `CCn1nnnc1NC(=O)c1ccc(SC)c(C(C)=O)c1Cl` [2-121], in assay [1], the “Pre-emergence action against ALOMY (herbicidal activity in percent)” value worked out at 90%. Besides, the “Pre-emergence action against AVEFA (herbicidal activity)” value in assay [2] turned out to be 90%. Moreover, the “Pre-emergence action against CYPES (herbicidal activity)” value in assay [3] stood at 90%. Besides, the “Pre-emergence action against ECHCG (herbicidal activity)” value in assay [4] is given as 100%. Further, the “SETVI (Table B8, pre-emergence herbicidal activity)” value in [5] was found to be 90%. Moreover, the “Pre-emergence action against ABUTH (herbicidal activity)” value in assay [6] is reported as 100%. Further, the “Pre-emergence action against AMARE (herbicidal activity)” value in [7] worked out at 100%. Besides, the “Pre-emergence action against MATIN” value in assay [8] is 100%. The “Pre-emergence action against PHBPU” value in assay [9] worked out at 80%. Also, the “Pre-emergence action against POLCO” value in assay [10] is on record as 100%. Further, the “Pre-emergence action against STEME” value in [11] worked out at 90%. Also, the “Pre-emergence action against VIOTR” value in [12] is 100%. Besides, the “Pre-emergence action against VERPE” value in assay [13] is 100%. Moreover, the “Post-emergence action against ALOMY” value in [14] is recorded as 80%. For the same compound, in assay [15], the “Post-emergence action against AVEFA (herbicidal action in percent)” value worked out at 80%. Also, the “Post-emergence action against CYPES (herbicidal action in percent)” value in assay [16] came out at 80%. Besides, the “Post-emergence action against ECHCG (herbicidal action in percent)” value in assay [17] is reported as 100%. The “Post-emergence action against SETVI (herbicidal action in percent)” value in [18] turned out to be 90%. Moreover, in assay [19], the “Post-emergence action against ABUTH (herbicidal action in percent)” value is reported as 100%. Also, the “Post-emergence action against AMARE (herbicidal action in percent)” value in assay [20] is on record as 100%. The “Post-emergence action against MATIN (herbicidal action in percent)” value in [21] is 100%. The “Post-emergence action against PHBPU” value in assay [22] is reported as 90. Also, in [23], the “Post-emergence action against STEME” value was found to be 90. For the same compound, in assay [24], the “Post-emergence action against VIOTR” value is 100. Besides, the “Post-emergence action against VERPE” value in assay [25] is on record as 100.
Take `CCCn1nnnc1NC(=O)c1ccc(C(F)(F)F)c(C(=O)C2CC2)c1C` [3-18]: in assay [1], the “Pre-emergence action against ALOMY (herbicidal activity in percent)” value is recorded as 80%. In assay [2], the “Pre-emergence action against AVEFA (herbicidal activity)” value amounted to 80%. Further, the “Pre-emergence action against CYPES (herbicidal activity)” value in assay [3] is reported as 90%. Further, in assay [4], the “Pre-emergence action against ECHCG (herbicidal activity)” value turned out to be 100%. For the same compound, in [5], the “SETVI (Table B8, pre-emergence herbicidal activity)” value is reported as 100%. In assay [6], the “Pre-emergence action against ABUTH (herbicidal activity)” value is reported as 100%. Also, the “Pre-emergence action against AMARE (herbicidal activity)” value in assay [7] amounted to 100%. Also, the “Pre-emergence action against MATIN” value in [8] worked out at 100%. Moreover, the “Pre-emergence action against STEME” value in [11] is 100%. Also, the “Pre-emergence action against VIOTR” value in [12] amounted to 100%. Besides, the “Pre-emergence action against VERPE” value in [13] is recorded as 90%. The “Post-emergence action against ALOMY” value in assay [14] is reported as 80%. The “Post-emergence action against AVEFA (herbicidal action in percent)” value in [15] is given as 80%. Besides, the “Post-emergence action against CYPES (herbicidal action in percent)” value in assay [16] was found to be 90%. Moreover, the “Post-emergence action against ECHCG (herbicidal action in percent)” value in assay [17] was found to be 80%. For the same compound, in assay [18], the “Post-emergence action against SETVI (herbicidal action in percent)” value is listed as 100%. Moreover, the “Post-emergence action against ABUTH (herbicidal action in percent)” value in [19] was found to be 80%. Besides, the “Post-emergence action against MATIN (herbicidal action in percent)” value in assay [21] turned out to be 90%. Also, the “Post-emergence action against PHBPU” value in assay [22] amounted to 90. The “Post-emergence action against POLCO” value in [26] is on record as 80. In [23], the “Post-emergence action against STEME” value amounted to 100. Also, the “Post-emergence action against VIOTR” value in [24] turned out to be 100. Moreover, the “Post-emergence action against VERPE” value in assay [25] came out at 80.
